System: MV-4-11 cells
Test: Gene expression microarray analysis (Affymetrix PrimeView) and GSEA
Assay type: cell-based, human
Parameters: RFU PODN (11730768_x_at) / Fold change /veh PODN (11730768_x_at) / RFU LINC00158 (11744669_a_at) / Fold change /veh LINC00158 (11744669_a_at) / RFU DUSP10 (11751237_a_at) / Fold change /veh DUSP10 (11751237_a_at) / RFU ID3 (11757404_x_at) / Fold change /veh ID3 (11757404_x_at) / RFU PLEKHG5 (11737974_s_at) / Fold change /veh PLEKHG5 (11737974_s_at) / RFU LRRC4B (11730491_at) / Fold change /veh LRRC4B (11730491_at) / RFU GIMAP4 (11747438_a_at) / Fold change /veh GIMAP4 (11747438_a_at) / RFU KRT8 (11758183_x_at) / Fold change /veh KRT8 (11758183_x_at) / RFU CNN1 (11734310_a_at) / Fold change /veh CNN1 (11734310_a_at) / RFU VPS37D (11726825_at) / Fold change /veh VPS37D (11726825_at) / RFU C10orf10 (11716522_x_at) / Fold change /veh C10orf10 (11716522_x_at) / RFU KIR2DL2 /// KIR2DL4 /// KIR2DL5A /// KIR2DL5B /// KIR2DS1 /// KIR2DS2 /// KIR2DS3 /// KIR2DS4 /// KIR3DL3 /// KIR3DL3 /// KIR3DS1 (11738374_at) / Fold change /veh KIR2DL2 /// KIR2DL4 /// KIR2DL5A /// KIR2DL5B /// KIR2DS1 /// KIR2DS2 /// KIR2DS3 /// KIR2DS4 /// KIR3DL3 /// KIR3DL3 /// KIR3DS1 (11738374_at) / RFU C1QL1 (11718748_at) / Fold change /veh C1QL1 (11718748_at) / RFU TMPRSS4 (11747572_a_at) / Fold change /veh TMPRSS4 (11747572_a_at) / RFU HAMP (11756126_x_at) / Fold change /veh HAMP (11756126_x_at) / RFU RNFT2 (11725882_a_at) / Fold change /veh RNFT2 (11725882_a_at) / RFU NR4A2 (11747474_a_at) / Fold change /veh NR4A2 (11747474_a_at) / RFU ABCC12 (11746883_a_at) / Fold change /veh ABCC12 (11746883_a_at) / RFU TMEM136 (11760407_x_at) / Fold change /veh TMEM136 (11760407_x_at) / RFU CLDN22 /// WWC2 (11732394_at) / Fold change /veh CLDN22 /// WWC2 (11732394_at) / RFU HLA-DPB1 (11760878_x_at) / Fold change /veh HLA-DPB1 (11760878_x_at) / RFU SPINT1 (11716480_a_at) / Fold change /veh SPINT1 (11716480_a_at) / RFU GAP43 (11754022_s_at) / Fold change /veh GAP43 (11754022_s_at) / RFU A4GNT (11735810_at) / Fold change /veh A4GNT (11735810_at) / RFU PRB3 (11715151_x_at) / Fold change /veh PRB3 (11715151_x_at) / RFU TUBB4B (11761932_at) / Fold change /veh TUBB4B (11761932_at) / RFU CAPN14 (11732068_a_at) / Fold change /veh CAPN14 (11732068_a_at) / RFU TMCC2 (11721928_a_at) / Fold change /veh TMCC2 (11721928_a_at) / RFU IRGQ (11745062_a_at) / Fold change /veh IRGQ (11745062_a_at) / RFU FAM174B (11720279_a_at) / Fold change /veh FAM174B (11720279_a_at) / RFU TMPRSS4 (11748680_a_at) / Fold change /veh TMPRSS4 (11748680_a_at) / RFU FAM212B (11763350_a_at) / Fold change /veh FAM212B (11763350_a_at) / RFU PLEKHG5 (11743358_a_at) / Fold change /veh PLEKHG5 (11743358_a_at) / RFU ZSCAN30 (11745921_a_at) / Fold change /veh ZSCAN30 (11745921_a_at) / RFU CMKLR1 (11741424_a_at) / Fold change /veh CMKLR1 (11741424_a_at) / RFU LOC101060620 /// MAPK8IP1 (11723275_at) / Fold change /veh LOC101060620 /// MAPK8IP1 (11723275_at) / RFU SPTSSB (11747773_x_at) / Fold change /veh SPTSSB (11747773_x_at) / RFU PRSS12 (11739890_at) / Fold change /veh PRSS12 (11739890_at) / RFU BIN1 (11741810_x_at) / Fold change /veh BIN1 (11741810_x_at) / RFU WNT11 (11732464_a_at) / Fold change /veh WNT11 (11732464_a_at) / RFU C10orf10 (11716521_a_at) / Fold change /veh C10orf10 (11716521_a_at) / RFU C5orf56 (11738089_at) / Fold change /veh C5orf56 (11738089_at) / RFU CYB561 (11721691_x_at) / Fold change /veh CYB561 (11721691_x_at) / RFU ANKRD19P (11752326_a_at) / Fold change /veh ANKRD19P (11752326_a_at) / RFU OR2T12 /// OR2T33 /// OR2T8 (11738714_s_at) / Fold change /veh OR2T12 /// OR2T33 /// OR2T8 (11738714_s_at) / RFU VCAN (11748164_a_at) / Fold change /veh VCAN (11748164_a_at) / RFU JSRP1 (11732532_at) / Fold change /veh JSRP1 (11732532_at) / RFU KRTAP10-11 (11738290_x_at) / Fold change /veh KRTAP10-11 (11738290_x_at) / RFU MYO3A (11730013_a_at) / Fold change /veh MYO3A (11730013_a_at) / RFU EBF3 (11725865_a_at) / Fold change /veh EBF3 (11725865_a_at) / RFU CAMK2N1 (11719241_x_at) / Fold change /veh CAMK2N1 (11719241_x_at) / RFU C5orf56 (11738088_a_at) / Fold change /veh C5orf56 (11738088_a_at) / RFU OLFML3 (11715873_a_at) / Fold change /veh OLFML3 (11715873_a_at) / RFU LOC100653217 /// NTM (11731650_a_at) / Fold change /veh LOC100653217 /// NTM (11731650_a_at) / RFU MAPK11 (11762145_a_at) / Fold change /veh MAPK11 (11762145_a_at) / RFU FIZ1 (11724087_x_at) / Fold change /veh FIZ1 (11724087_x_at) / RFU OASL (11726364_x_at) / Fold change /veh OASL (11726364_x_at) / RFU SOX15 (11748057_x_at) / Fold change /veh SOX15 (11748057_x_at) / RFU CD79A (11719716_a_at) / Fold change /veh CD79A (11719716_a_at) / RFU HIST1H1D (11736915_at) / Fold change /veh HIST1H1D (11736915_at) / RFU CASKIN2 (11723855_a_at) / Fold change /veh CASKIN2 (11723855_a_at) / RFU LOC730098 (11760151_x_at) / Fold change /veh LOC730098 (11760151_x_at) / RFU OR4N2 (11742367_at) / Fold change /veh OR4N2 (11742367_at) / RFU PRRT2 (11749266_a_at) / Fold change /veh PRRT2 (11749266_a_at) / RFU SNX32 (11753110_a_at) / Fold change /veh SNX32 (11753110_a_at) / RFU CDHR5 (11726645_a_at) / Fold change /veh CDHR5 (11726645_a_at) / RFU RCAN1 (11760418_a_at) / Fold change /veh RCAN1 (11760418_a_at) / RFU FAM167A (11723789_a_at) / Fold change /veh FAM167A (11723789_a_at) / RFU FAM26E (11764081_at) / Fold change /veh FAM26E (11764081_at) / RFU ISYNA1 (11749810_s_at) / Fold change /veh ISYNA1 (11749810_s_at) / RFU ACY1 (11761880_at) / Fold change /veh ACY1 (11761880_at) / RFU 11764098_at / Fold change /veh 11764098_at / RFU SAMD14 (11745864_x_at) / Fold change /veh SAMD14 (11745864_x_at) / RFU NPB (11741838_a_at) / Fold change /veh NPB (11741838_a_at) / RFU TMPRSS6 (11731388_a_at) / Fold change /veh TMPRSS6 (11731388_a_at) / RFU KRTAP10-2 (11738614_at) / Fold change /veh KRTAP10-2 (11738614_at) / RFU ARHGAP8 /// PRR5-ARHGAP8 (11727945_x_at) / Fold change /veh ARHGAP8 /// PRR5-ARHGAP8 (11727945_x_at) / RFU KRTAP5-7 /// NADSYN1 (11734609_at) / Fold change /veh KRTAP5-7 /// NADSYN1 (11734609_at) / RFU RASL12 (11751679_a_at) / Fold change /veh RASL12 (11751679_a_at) / RFU CDKN2B (11736163_a_at) / Fold change /veh CDKN2B (11736163_a_at) / RFU PRF1 (11729649_at) / Fold change /veh PRF1 (11729649_at) / RFU, ZNF638 /// ZNF638-IT1 / Fold change vs veh, ZNF638 /// ZNF638-IT1 / RFU, PANK3 / Fold change vs veh, PANK3 / RFU, SH3YL1 / Fold change vs veh, SH3YL1 / RFU, ZEB2 / Fold change vs veh, ZEB2 / RFU, NRIP1 / Fold change vs veh, NRIP1 / RFU, PTTG1IP / Fold change vs veh, PTTG1IP / RFU, CAPN2 / Fold change vs veh, CAPN2 / RFU, MED14 / Fold change vs veh, MED14 / RFU, SNORA58 / Fold change vs veh, SNORA58 / RFU, C1orf63 / Fold change vs veh, C1orf63 / RFU, LRRFIP1 / Fold change vs veh, LRRFIP1 / RFU, NDUFAF7 / Fold change vs veh, NDUFAF7 / RFU, SLC12A2 / Fold change vs veh, SLC12A2 / RFU, IBTK / Fold change vs veh, IBTK / RFU, ESF1 / Fold change vs veh, ESF1 / Fold change vs veh, TMEM50B / RFU, TAOK1 / Fold change vs veh, TAOK1 / RFU, ACBD3 / Fold change vs veh, ACBD3 / RFU, TMA16 / Fold change vs veh, TMA16 / RFU, RWDD3 / Fold change vs veh, RWDD3 / RFU, BCAT1 / Fold change vs veh, BCAT1 / RFU, EDEM3 / Fold change vs veh, EDEM3 / RFU, TMEM33 / Fold change vs veh, TMEM33 / RFU, WDR75 / Fold change vs veh, WDR75 / RFU, AHCTF1 / Fold change vs veh, AHCTF1 / RFU, TFRC / Fold change vs veh, TFRC / RFU, ZDHHC17 / Fold change vs veh, ZDHHC17 / RFU, NOM1 / Fold change vs veh, NOM1 / RFU, ARL8B / Fold change vs veh, ARL8B / RFU, ZBTB11 / Fold change vs veh, ZBTB11 / RFU, TAMM41 / Fold change vs veh, TAMM41 / RFU, KIAA1704 /// LOC100996395 / Fold change vs veh, KIAA1704 /// LOC100996395 / RFU, ING1 / Fold change vs veh, ING1 / RFU, TRMT61B / Fold change vs veh, TRMT61B / RFU, FUBP3 / Fold change vs veh, FUBP3 / RFU, TP53 / Fold change vs veh, TP53 / RFU, TNKS2 / Fold change vs veh, TNKS2 / RFU, ZFP14 / Fold change vs veh, ZFP14 / RFU, ACTR2 / Fold change vs veh, ACTR2 / RFU, PPP3R1 / Fold change vs veh, PPP3R1 / RFU, PIK3R1 / Fold change vs veh, PIK3R1 / RFU, HNRNPA1 / Fold change vs veh, HNRNPA1 / RFU, RNF170 / Fold change vs veh, RNF170 / RFU, ZNF28 / Fold change vs veh, ZNF28 / RFU, RNGTT / Fold change vs veh, RNGTT / RFU, OGT / Fold change vs veh, OGT / RFU, BRD1 / Fold change vs veh, BRD1 / RFU, MARS / Fold change vs veh, MARS / RFU, ZNF655 / Fold change vs veh, ZNF655 / RFU, FAHD1 / Fold change vs veh, FAHD1 / RFU, BDP1 / Fold change vs veh, BDP1 / RFU, LRRCC1 / Fold change vs veh, LRRCC1 / RFU, ARID1A / Fold change vs veh, ARID1A / RFU, ZNF146 / Fold change vs veh, ZNF146 / RFU, ZNF330 / Fold change vs veh, ZNF330 / RFU, GPN3 / Fold change vs veh, GPN3 / RFU, C9orf123 / Fold change vs veh, C9orf123 / RFU, N4BP2L2 / Fold change vs veh, N4BP2L2 / RFU, ARFIP1 / Fold change vs veh, ARFIP1 / RFU, FAM179B / Fold change vs veh, FAM179B / RFU, BCL10 / Fold change vs veh, BCL10 / RFU, UHRF1BP1L / Fold change vs veh, UHRF1BP1L / RFU, BET1 / Fold change vs veh, BET1 / RFU, CNOT2 / Fold change vs veh, CNOT2 / RFU, ZNF268 / Fold change vs veh, ZNF268 / Fold change vs veh, ZNF507 / RFU, DGCR2 / Fold change vs veh, DGCR2 / RFU, WDSUB1 / Fold change vs veh, WDSUB1 / Fold change vs veh, HSP90B1 /// MIR3652 / RFU, ADSS / Fold change vs veh, ADSS / RFU, GK / Fold change vs veh, GK / RFU, ZNF148 / Fold change vs veh, ZNF148 / RFU, TAF9 / Fold change vs veh, TAF9 / RFU, SLC1A5 / Fold change vs veh, SLC1A5 / RFU, SLMO2 / Fold change vs veh, SLMO2 / RFU, ABCC4 / Fold change vs veh, ABCC4 / RFU, LOC101060439 /// RAP1B / Fold change vs veh, LOC101060439 /// RAP1B / RFU, RFX7 / Fold change vs veh, RFX7 / RFU, GTPBP10 / Fold change vs veh, GTPBP10 / RFU, CNEP1R1 / Fold change vs veh, CNEP1R1 / RFU, BIVM-ERCC5 /// ERCC5 / Fold change vs veh, BIVM-ERCC5 /// ERCC5 / RFU, ILF3 / Fold change vs veh, ILF3 / RFU 11762660_at / Fold change /veh 11762660_at / RFU VCAN (11757783_s_at) / Fold change /veh VCAN (11757783_s_at) / RFU DDX43 (11728927_at) / Fold change /veh DDX43 (11728927_at) / RFU KRT8 (11758188_x_at) / Fold change /veh KRT8 (11758188_x_at) / RFU NKD1 (11759106_at) / Fold change /veh NKD1 (11759106_at) / RFU SRD5A1 (11742802_a_at) / Fold change /veh SRD5A1 (11742802_a_at) / RFU TPSAB1 /// TPSB2 (11721975_s_at) / Fold change /veh TPSAB1 /// TPSB2 (11721975_s_at) / RFU GSTM3 (11746129_a_at) / Fold change /veh GSTM3 (11746129_a_at) / RFU IL23R (11737362_x_at) / Fold change /veh IL23R (11737362_x_at) / RFU TMEM51 (11727254_a_at) / Fold change /veh TMEM51 (11727254_a_at) / RFU PIWIL2 (11732686_x_at) / Fold change /veh PIWIL2 (11732686_x_at) / RFU ORM1 (11744905_x_at) / Fold change /veh ORM1 (11744905_x_at) / RFU CCDC152 (11743942_at) / Fold change /veh CCDC152 (11743942_at) / RFU ECM1 (11717891_a_at) / Fold change /veh ECM1 (11717891_a_at) / RFU IL23R (11748794_a_at) / Fold change /veh IL23R (11748794_a_at) / RFU TNFAIP8L3 (11732012_x_at) / Fold change /veh TNFAIP8L3 (11732012_x_at) / RFU MBOAT4 (11741988_at) / Fold change /veh MBOAT4 (11741988_at) / RFU 11764193_at / Fold change /veh 11764193_at / RFU TMEM53 (11763286_at) / Fold change /veh TMEM53 (11763286_at) / RFU MAGEB2 (11727129_at) / Fold change /veh MAGEB2 (11727129_at) / RFU TMEM200A (11744735_a_at) / Fold change /veh TMEM200A (11744735_a_at) / RFU CCDC152 (11751479_a_at) / Fold change /veh CCDC152 (11751479_a_at) / RFU FAM211A (11726209_a_at) / Fold change /veh FAM211A (11726209_a_at) / RFU RGS16 (11746705_a_at) / Fold change /veh RGS16 (11746705_a_at) / RFU VCAN (11755009_s_at) / Fold change /veh VCAN (11755009_s_at) / RFU RHOB (11743442_s_at) / Fold change /veh RHOB (11743442_s_at) / RFU RGS16 (11720943_a_at) / Fold change /veh RGS16 (11720943_a_at) / RFU RGS16 (11720944_at) / Fold change /veh RGS16 (11720944_at) / RFU, VPS4B / Fold change vs veh, VPS4B / RFU, CREB1 / Fold change vs veh, CREB1 / RFU, DNAJC13 / Fold change vs veh, DNAJC13 / RFU, GNAQ / Fold change vs veh, GNAQ / RFU, CDK5R1 / Fold change vs veh, CDK5R1 / RFU, ZRANB3 / Fold change vs veh, ZRANB3 / RFU, CUL4A / Fold change vs veh, CUL4A / RFU, CCNY / Fold change vs veh, CCNY / RFU, UFL1 / Fold change vs veh, UFL1 / RFU, COG3 / Fold change vs veh, COG3 / RFU, DIAPH2 / Fold change vs veh, DIAPH2 / RFU, SKA2 / Fold change vs veh, SKA2 / RFU, AFF3 / Fold change vs veh, AFF3 / RFU, LMF1 / Fold change vs veh, LMF1 / RFU, IPO11 / Fold change vs veh, IPO11 / RFU, DFFB / Fold change vs veh, DFFB / RFU, FOXP1 / Fold change vs veh, FOXP1 / RFU, CARD8 / Fold change vs veh, CARD8 / RFU, STRN3 / Fold change vs veh, STRN3 / RFU, ADK / Fold change vs veh, ADK / RFU, RASSF2 / Fold change vs veh, RASSF2 / RFU, WIPF1 / Fold change vs veh, WIPF1 / RFU, LARP1B / Fold change vs veh, LARP1B / RFU, RASA1 / Fold change vs veh, RASA1 / RFU, RB1 / Fold change vs veh, RB1 / RFU, PPFIA1 / Fold change vs veh, PPFIA1 / RFU, MAT2A / Fold change vs veh, MAT2A / RFU, CCT5 / Fold change vs veh, CCT5 / RFU, WDR92 / Fold change vs veh, WDR92 / RFU, CUX1 / Fold change vs veh, CUX1 / RFU, TTC7A / Fold change vs veh, TTC7A / RFU, TMEM135 / Fold change vs veh, TMEM135 / RFU, DEPTOR / Fold change vs veh, DEPTOR / RFU, CPM / Fold change vs veh, CPM / RFU, DNAJB6 / Fold change vs veh, DNAJB6 / RFU, CACNA2D3 / Fold change vs veh, CACNA2D3 / RFU, DTX4 / Fold change vs veh, DTX4 / RFU, TFCP2 / Fold change vs veh, TFCP2 / RFU, GMCL1 /// GMCL1P1 / Fold change vs veh, GMCL1 /// GMCL1P1 / RFU, AEBP2 / Fold change vs veh, AEBP2 / RFU, SNHG1 /// SNORD22 /// SNORD25 /// SNORD26 /// SNORD27 /// SNORD28 /// SNORD29 /// SNORD31 / Fold change vs veh, SNHG1 /// SNORD22 /// SNORD25 /// SNORD26 /// SNORD27 /// SNORD28 /// SNORD29 /// SNORD31 / Fold change (Aza/veh), C12orf56 (ProbeSet 11735607_a_at) / Fold change (ACY-1035/veh), C12orf56 (ProbeSet 11735607_a_at) / Fold change (Aza/veh), FGFR1OP (ProbeSet 11751329_s_at) / Fold change (ACY-1035/veh), FGFR1OP (ProbeSet 11751329_s_at) / Fold change (Aza/veh), VPS36 (ProbeSet 11739960_a_at) / Fold change (ACY-1035/veh), VPS36 (ProbeSet 11739960_a_at) / RFU SYPL1 (11715823_x_at) / Fold change /veh SYPL1 (11715823_x_at) / RFU IGFBP7 (11715501_s_at) / Fold change /veh IGFBP7 (11715501_s_at) / RFU REEP3 (11722064_at) / Fold change /veh REEP3 (11722064_at) / RFU IGLL1 (11728026_x_at) / Fold change /veh IGLL1 (11728026_x_at): dose or concentration left out as unconfirmed
Settings: MV-4-11 cells, 48 hours

## Nc1ccc(-c2cccs2)cc1NC(=O)c1ccc2c(c1)cc(C1CC1)n2CCN1CCOCC1 [ACY-1035]
  RFU ID3 (11757404_x_at): 47.18 RFU

— publication PMC5218480 (PLoS ONE, 2017)
